Values of other authors, collected in patent US20060172021A1, “Herbal compositions for the prevention or treatment of symptoms of stress and infection” (priority 2005, published 2006).

Legend:
[1] = system: human progesterone production
female mice = settings: mouse, in vivo

| Molecule | Inhibition of prostaglandin synthesis (prostaglandin synthesis) | also measured |
| --- | --- | --- |
| CCCCC[C@H](O)CC(=O)CCc1ccc(O)c(OC)c1 [gingerol] | potent inhibitors | – |
| andrographolide sodium succinate | – | Detrimental effects on other normal human tissue [1]: intended for. There were no detrimental effects; Inhibition of human progesterone production ([1]; cultured human placental tissue): (derived from AP) was effective in inhibiting |
| CCCCCC(=O)/C=C(O)/C=C\c1ccc(O)c(OC)c1 [dehydrogingerdione] | potent inhibitors | – |
| C=C1CC[C@@H]2[C@](C)(CO)[C@H](O)CC[C@@]2(C)[C@@H]1/C=C/C1=CCOC1=O [dehydroandrographolide] | – | Dose required to affect pregnancy (female mice): 250 mg/kg. of body weight. This amount of pure |
| CCCCCC(=O)CC(=O)CCc1ccc(O)c(OC)c1 [gingerdione] | potent inhibitors | – |
